Measured values from patent US11739078B2, “Methods of inhibiting kinases” (INSILICO MEDICINE IP LIMITED, priority 2019, dated 2023).
Read-outs that look alike come from different tables or passages of the source.

Key:
[1] = test system: collagen type 1 alpha 1 (COL1A1) mRNA expression; test: Collagen production assay (COL1A1 mRNA expression); type: cell-based
Procedure: HDF/TERT166 working lot cells can be thawed from liquid nitrogen and expanded using standard conditions (Medium: DMEM/Ham's F12 basal medium supplemented with 1× GlutaMax-I and 10% FBS without antibiotics; 37° C. 5% CO2). For performing the treatment, cells can be seeded at a cell density of 7500 cells/cm^2 in 12-well plates the day before the first treatment. Cells can be seeded in starvation medium (DMEM/Ham's F12 basal medium supplemented with 1× GlutaMax-I and 0.5% FBS without antibiotics). Approximately 24 hours after seeding the substances can be dissolved in DMSO (stocks: 10 mM) and diluted in starvation medium to a final concentration of 10 μM. Half of this working dilution can be supplemented with 100 pg/mL TGFbeta. For each substance, two wells can be treated with a 10 μM concentration of the substance and a 10 μM concentration supplemented with 100 pg/mL TGF-beta. In parallel, cells can be treated with 100 pg/mL TGF-beta alone. Cells in starvation medium can serve as a control. For all cells treatment can be done by performing a medium exchange. […]
RNA extraction can be performed with 200 μL Chloroform, and phase separation can be achieved by centrifugation for 15 min at 12,000 g at 4° C. […] RNA concentration can be determined spectrophotometrically with a Nanodrop instrument. […]

[2] = test system: Human hepatic stellate cell LX-2; test: LX-2 fibrosis assay, collagen production; type: cell-based; conditions: LX-2 cells stimulated with 4 ng/mL TGF-b for 48 hours, Western blot
Procedure: Human hepatic stellate cell LX-2 were grown in DMEM (Invitrogen, 11960) supplied with 1% MEM Non-Essential Amino Acids (Invitrogen, 11140-050), 2% fetal bovine serum (Hyclone, SV30087.03), Penicillin (100 U/mL)-streptomycin (100 μg/mL) (Millipore, TMS-AB2-C) and 2 mM L-Glutamine (Invitrogen, 25030-001). After the cells grew in 12-well plates for 24 hours, the cell culture medium was changed to the same as above except using 0.4% fetal bovine serum. After 20 hour growth in the reduced serum medium, the cells were treated with indicated doses of compounds for 30 minutes. Subsequently, the cells were stimulated with 4 ng/mL TGF-b (R&D Systems, 240-B-002) for 48 hours. The cells were rinsed twice with DPBS before being harvested with 100 μL RIPA buffer (Sigma, R10278) supplemented with protease inhibitor cocktail (Roche, 04693132001) at 4° C. The total protein in each sample was quantified using BCA Protein Assay Kit (Pierce™, 23227) and equal amount of total protein of each sample was subject to Western blot analysis. Antibodies used were mouse anti-α-Actin (SPM332) ([…]), mouse anti-CTGF (E5) ([…]), and mouse anti-collagen α1 (3G3) (sc-293182), from Santa Cruz Biotechnologies; and mouse anti-GAPDH (6C5) (EMD Millipore, MAB374).

TNIK = TNIK (Homo sapiens (Human), UniProt Q9UKE5); test: TNIK enzymatic assay (radiometric kinase inhibition); type: biochemical
Procedure: The compounds were studied for function as TNIK inhibitors to generate the data of Table 1. […] (specific activity and concentration as required). The reaction is initiated by the addition of the Mg/ATP mix. After incubation for 40 minutes at room temperature, the reaction is stopped by the addition of phosphoric acid to a concentration of 0.5%.

MAP4K4 (h) = MAP4K4 (h) (Homo sapiens (Human), UniProt O95819); test: MAP4K4 in vitro kinase assay (radiometric); type: biochemical; conditions: read-out: MAP4K4_IC50
Procedure: (specific activity and concentration as required). The reaction is initiated by the addition of the Mg/ATP mix. After incubation for 40 minutes at room temperature, the reaction is stopped by the addition of phosphoric acid to a concentration of 0.5%.

[3] = TNIK enzymatic assay, Table 1, read-out: IC50

TNIK, sequence (Q9UKE5 whole entry): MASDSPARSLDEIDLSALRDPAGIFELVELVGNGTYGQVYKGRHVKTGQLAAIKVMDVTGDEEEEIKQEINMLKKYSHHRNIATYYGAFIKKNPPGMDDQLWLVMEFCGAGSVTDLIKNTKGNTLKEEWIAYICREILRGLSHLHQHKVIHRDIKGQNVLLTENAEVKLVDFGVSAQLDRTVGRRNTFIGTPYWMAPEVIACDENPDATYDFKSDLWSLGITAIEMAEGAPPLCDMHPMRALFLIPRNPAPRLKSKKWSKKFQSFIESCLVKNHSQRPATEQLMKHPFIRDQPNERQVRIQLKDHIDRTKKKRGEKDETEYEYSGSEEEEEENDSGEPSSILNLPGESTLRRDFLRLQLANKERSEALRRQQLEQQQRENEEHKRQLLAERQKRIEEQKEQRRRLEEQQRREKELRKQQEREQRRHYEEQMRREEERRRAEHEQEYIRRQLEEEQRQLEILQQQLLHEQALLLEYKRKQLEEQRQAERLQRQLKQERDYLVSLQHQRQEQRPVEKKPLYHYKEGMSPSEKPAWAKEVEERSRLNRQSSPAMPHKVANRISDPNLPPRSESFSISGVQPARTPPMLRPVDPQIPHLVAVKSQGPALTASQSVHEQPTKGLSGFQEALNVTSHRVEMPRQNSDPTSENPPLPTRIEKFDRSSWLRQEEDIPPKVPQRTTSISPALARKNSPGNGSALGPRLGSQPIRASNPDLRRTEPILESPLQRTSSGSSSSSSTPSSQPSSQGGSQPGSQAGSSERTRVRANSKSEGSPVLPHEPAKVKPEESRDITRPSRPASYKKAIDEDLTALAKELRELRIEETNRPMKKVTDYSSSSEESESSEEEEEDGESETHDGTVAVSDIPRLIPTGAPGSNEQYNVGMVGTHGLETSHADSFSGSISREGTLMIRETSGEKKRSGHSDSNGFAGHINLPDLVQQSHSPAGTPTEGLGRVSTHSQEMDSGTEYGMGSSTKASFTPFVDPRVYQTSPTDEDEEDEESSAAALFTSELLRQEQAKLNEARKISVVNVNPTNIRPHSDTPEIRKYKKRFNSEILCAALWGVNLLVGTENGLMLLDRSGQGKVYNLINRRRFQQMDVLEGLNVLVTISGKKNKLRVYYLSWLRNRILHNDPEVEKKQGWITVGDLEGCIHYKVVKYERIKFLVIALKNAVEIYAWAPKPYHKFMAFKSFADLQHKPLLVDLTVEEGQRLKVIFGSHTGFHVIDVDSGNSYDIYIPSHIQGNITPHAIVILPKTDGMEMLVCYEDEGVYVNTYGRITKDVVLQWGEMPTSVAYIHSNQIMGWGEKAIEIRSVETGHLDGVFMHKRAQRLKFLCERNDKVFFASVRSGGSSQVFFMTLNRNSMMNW
MAP4K4 (h), sequence (O95819 whole entry): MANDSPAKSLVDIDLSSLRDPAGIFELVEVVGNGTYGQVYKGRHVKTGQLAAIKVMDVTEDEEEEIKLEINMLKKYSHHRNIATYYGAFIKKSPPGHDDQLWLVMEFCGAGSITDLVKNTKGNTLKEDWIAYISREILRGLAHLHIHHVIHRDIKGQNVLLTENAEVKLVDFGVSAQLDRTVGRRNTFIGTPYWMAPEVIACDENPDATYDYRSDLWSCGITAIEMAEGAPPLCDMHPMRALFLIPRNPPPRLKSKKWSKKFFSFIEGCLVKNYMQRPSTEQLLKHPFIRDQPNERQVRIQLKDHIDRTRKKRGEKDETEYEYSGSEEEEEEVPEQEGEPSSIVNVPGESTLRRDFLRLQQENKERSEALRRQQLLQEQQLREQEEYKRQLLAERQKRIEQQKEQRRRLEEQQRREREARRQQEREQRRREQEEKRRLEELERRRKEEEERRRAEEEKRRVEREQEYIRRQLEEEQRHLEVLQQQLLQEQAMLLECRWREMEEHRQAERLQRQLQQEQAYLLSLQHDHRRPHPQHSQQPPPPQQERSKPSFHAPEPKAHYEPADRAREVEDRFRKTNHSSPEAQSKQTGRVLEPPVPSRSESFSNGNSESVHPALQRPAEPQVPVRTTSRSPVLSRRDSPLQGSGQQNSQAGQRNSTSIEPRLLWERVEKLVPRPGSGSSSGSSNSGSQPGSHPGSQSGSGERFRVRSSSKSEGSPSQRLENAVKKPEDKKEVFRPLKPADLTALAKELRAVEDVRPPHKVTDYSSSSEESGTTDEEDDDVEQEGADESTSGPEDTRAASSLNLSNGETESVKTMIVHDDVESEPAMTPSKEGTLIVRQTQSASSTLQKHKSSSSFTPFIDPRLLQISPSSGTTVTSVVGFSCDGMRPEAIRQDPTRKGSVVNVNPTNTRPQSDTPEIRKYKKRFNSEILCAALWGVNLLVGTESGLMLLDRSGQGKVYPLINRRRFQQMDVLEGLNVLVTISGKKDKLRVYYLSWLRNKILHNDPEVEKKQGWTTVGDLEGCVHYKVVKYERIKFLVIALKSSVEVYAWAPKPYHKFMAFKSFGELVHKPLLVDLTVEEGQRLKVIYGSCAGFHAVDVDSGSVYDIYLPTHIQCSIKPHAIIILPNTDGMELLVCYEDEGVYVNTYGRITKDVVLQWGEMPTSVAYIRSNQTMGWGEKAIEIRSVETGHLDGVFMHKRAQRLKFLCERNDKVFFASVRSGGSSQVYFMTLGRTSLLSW

| EC50 ([2]; Homo sapiens, LX-2, 48 h) [µM] | IC50 (TNIK; [3]) [nM] | IC50 (TNIK; read-out: TNIK_IC50) [nM] | IC50 (MAP4K4 (h)) [nM] | EC50 [2] [µM] | SMILES | collagen type 1 alpha 1 (COL1A1) mRNA expression [1] | effect of TGF-beta treatment on the COL1A1 mRNA expression ([1]; with TGF-beta treatment) |
| --- | --- | --- | --- | --- | --- | --- | --- |
| – | – | – | – | – | CC(=O)Nc1ccc(C(=O)Nc2sc(Nc3ccccc3)nc2C(N)=O)cc1 [5-(4-acetamidobenzamido)-2-(phenylamino)-1,3-thiazole-4-carboxamide] | decreased | inhibited |
| 2.01 | 251 | 251 | 1200 | – | O=C(Nc1ccccc1F)c1ccc(-c2c(-c3ccc(F)cc3)ncn2C2CCNC2)o1 (stereo not drawn) [Compound 85, N-(2-fluorophenyl)-5-(4-(4-fluorophenyl)-1-(pyrrolidin-3-yl)-1H-imidazol-5-yl)furan-2-carboxamide] | – | – |
| 1.14 | 25 | 25.1 | 142 | – | O=C(Nc1ccccc1F)c1ccc(-c2c(-c3ccc(F)cc3)ncn2C2CCOC2)o1 (stereo not drawn) [Compound 86, N-(2-fluorophenyl)-5-(4-(4-fluorophenyl)-1-(tetrahydrofuran-3-yl)-1H-imidazol-5-yl)furan-2-carboxamide] | – | – |
| 1.5 | 76 | 76.5 | 222 | – | O=C(Nc1ccccc1F)c1ccc(-c2c(-c3ccc(F)cc3)ncn2CC2CCCO2)o1 (stereo not drawn) [Compound 87, N-(2-fluorophenyl)-5-(4-(4-fluorophenyl)-1-((tetrahydrofuran-2-yl)methyl)-1H-imidazol-5-yl)furan-2-carboxamide] | – | – |
| 1.53 | – | 136 | 566 | – | O=C(Nc1ccccc1F)c1ccc(-c2c(-c3ccncc3)ncn2C2CCCC2)o1 [Compound 91, 5-(1-cyclopentyl-4-(pyridin-4-yl)-1H-imidazol-5-yl)-N-(2-fluorophenyl)furan-2-carboxamide] | – | – |
| 4.28 | – | 93.2 | 112 | – | O=C(Nc1ccccc1F)c1ccc(-c2c(-c3cccnc3)ncn2C2CCCC2)o1 [Compound 92, 5-(1-cyclopentyl-4-(pyridin-3-yl)-1H-imidazol-5-yl)-N-(2-fluorophenyl)furan-2-carboxamide] | – | – |
| 0.754 | 36 | 36.4 | 131 | – | O=C(Nc1ccccc1F)c1ccc(-c2c(-c3ccc(F)nc3)ncn2C2CCCC2)o1 [Compound 93, 5-(1-cyclopentyl-4-(6-fluoropyridin-3-yl)-1H-imidazol-5-yl)-N-(2-fluorophenyl)furan-2-carboxamide] | – | – |
| > 10 | – | 3720 | 6870 | – | O=C(Nc1c(O)cncc1F)c1ccc(-c2c(-c3ccc(F)cc3)ncn2C2COC2)o1 [Compound A-45, N-(3-fluoro-5-hydroxypyridin-4-yl)-5-(4-(4-fluorophenyl)-1-(oxetan-3-yl)-1H-imidazol-5-yl)furan-2-carboxamide] | – | – |
| > 10 | – | 5380 | 8300 | – | O=C(Nc1cc[nH]c(=O)c1)c1ccc(-c2c(-c3ccc(F)cc3)ncn2C2COC2)o1 [Compound A-46, 5-(4-(4-fluorophenyl)-1-(oxetan-3-yl)-1H-imidazol-5-yl)-N-(2-oxo-1,2-dihydropyridin-4-yl)furan-2-carboxamide] | – | – |
| 0.401 | – | 125 | > 1000 | – | Cn1cnc(-c2ccc(F)cc2)c1-c1ccc(C(=O)Nc2ccncc2F)o1 [Compound A-49, 5-(4-(4-fluorophenyl)-1-methyl-1H-imidazol-5-yl)-N-(3-fluoropyridin-4-yl)furan-2-carboxamide] | – | – |
| – | – | 191 | 337 | 1.98 | O=C(Nc1ccncc1F)c1ccc(-c2c(-c3ccc(F)cc3)ncn2C2COCC2F)o1 (stereo not drawn) [Compound A-53, S-(4-(4-fluorophenyl)-1-(4-fluorotetrahydrofuran-3-yl)-1H-imidazol-S-yl)-N-(3-fluoropyridin-4-yl)furan-2-carboxamide] | – | – |
| 0.437 | – | 91 | 301 | – | O=C(Nc1ccncn1)c1ccc(-c2c(-c3ccc(F)cc3)ncn2C2COCC2F)o1 (stereo not drawn) [Compound A-55, 5-(4-(4-fluorophenyl)-1-(4-fluorotetrahydrofuran-3-yl)-1H-imidazol-5-yl)-N-(pyrimidin-4-yl)furan-2-carboxamide] | – | – |
| 0.669 | – | 75.2 | 95.4 | – | Cc1cc(NC(=O)c2ccc(-c3c(-c4ccc(F)cc4)ncn3C3COCC3F)o2)c(F)cn1 (stereo not drawn) [Compound A-58, N-(5-fluoro-2-methylpyridin-4-yl)-5-(4-(4-fluorophenyl)-1-(4-fluorotetrahydrofuran-3-yl)-1H-imidazol-5-yl)furan-2-carboxamide] | – | – |
